In ChEMBL document CHEMBL5154925, “Design and Optimization of Thienopyrimidine Derivatives as Potent and Selective PI3Kδ Inhibitors for the Treatment of B-Cell Malignancies” (J Med Chem, 2022):
≈ marks a conversion by molar mass, not a printed value.

Legend:
[1] = molecular target: T1, Phosphatidylinositol 4,5-bisphosphate 3-kinase catalytic subunit beta isoform (Homo sapiens, UniProt P42338); experiment: Inhibition of PI3Kbeta (unknown origin) using PIP2 as substrate measured after 1 hr in presence of ATP by ADP-glo luminescence assay
Pfeiffer [2] = experiment: Induction of apoptosis in human Pfeiffer cells assessed as late apoptotic cells at 10 uM incubated for 48 hrs by annexin V-FITC staining based flow cytometry (reference value: 7.87 %); type: functional
Z-138 = experiment: Antiproliferative activity against human Z138 cells assessed as cell growth inhibition incubated for 96 hrs by cell titer glo assay; type: functional, cell-based; details: Z-138, 96 h
[3] = Microsomal stability in mouse liver microsomes assessed as intrinsic clearance; type: ADME, Microsome; details: read-out: CLH
Pfeiffer [4] = experiment: Induction of apoptosis in human Pfeiffer cells assessed as necrotic cells at 2 uM incubated for 48 hrs by annexin V-FITC staining based flow cytometry (reference value: 6.62 %); type: functional
SUD4 = experiment: Antiproliferative activity against human SU-DHL-4 cells assessed as cell growth inhibition incubated for 96 hrs by cell titer glo assay; type: functional, cell-based; details: SU-DHL-4, 96 h
Pfeiffer [5] = experiment: Induction of apoptosis in human Pfeiffer cells assessed as necrotic cells at 10 uM incubated for 48 hrs by annexin V-FITC staining based flow cytometry (reference value: 6.62 %); type: functional
[6] = molecular target: Phosphatidylinositol 4,5-bisphosphate 3-kinase catalytic subunit alpha isoform (Homo sapiens, UniProt P42336); experiment: Inhibition of PI3Kalpha (unknown origin) using PIP2 as substrate measured after 1 hr in presence of ATP by ADP-glo luminescence assay
JeKo-1 = experiment: Antiproliferative activity against human JeKo-1 cells assessed as cell growth inhibition incubated for 96 hrs by cell titer glo assay; type: functional, cell-based; details: JeKo-1, 96 h
Pfeiffer [7] = experiment: Induction of apoptosis in human Pfeiffer cells assessed as late apoptotic cells at 2 uM incubated for 48 hrs by annexin V-FITC staining based flow cytometry (reference value: 7.87 %); type: functional
Pfeiffer [8] = experiment: Antitumor activity against human Pfeiffer cells xenografted in nude mouse assessed as tumor growth inhibition at 30 mg/kg, po BID for 21 days and measured twice weekly; type: functional; details: 504 h, time 21 day, read-out: TGI
DOHH-2 = experiment: Antiproliferative activity against human DOHH-2 cells assessed as cell growth inhibition incubated for 96 hrs by cell titer glo assay; type: functional, cell-based; details: DOHH-2, 96 h
Pfeiffer [9] = experiment: Antiproliferative activity against human Pfeiffer cells assessed as cell growth inhibition incubated for 96 hrs by cell titer glo assay; type: functional, cell-based
[10] = molecular target: T1, Phosphatidylinositol 4,5-bisphosphate 3-kinase catalytic subunit beta isoform; experiment: Inhibition of PI3Kbeta in LPA stimulated human PC-3 cells incubated for 10 mins by AlphaLISA assay; type: cell-based
[11] = Microsomal stability in mouse liver microsomes assessed as half life; type: ADME, Microsome
[12] = molecular target: Serine/threonine-protein kinase mTOR (Homo sapiens, UniProt P42345); experiment: Inhibition of mTOR (unknown origin)
SU-DHL-6 = experiment: Antiproliferative activity against human SU-DHL-6 cells assessed as cell growth inhibition incubated for 96 hrs by cell titer glo assay; type: functional, cell-based; details: SU-DHL-6, 96 h
Pfeiffer [13] = experiment: Induction of apoptosis in human Pfeiffer cells assessed as early apoptotic cells at 2 uM incubated for 48 hrs by annexin V-FITC staining based flow cytometry (reference value: 4.16 %); type: functional
[14] = Solubility of the compound in PBS; type: physicochemical
[15] = Solubility of the compound in FaSSIF; type: physicochemical
[16] = Plasma protein binding in mouse; type: ADME, cell-free; details: read-out: PPB (converted)
Pfeiffer [17] = experiment: Induction of apoptosis in human Pfeiffer cells assessed as viable […] cells at 2 uM incubated for 48 hrs by annexin V-FITC staining based flow cytometry (reference value: 81.14 %); type: functional
Pfeiffer [18] = experiment: Induction of apoptosis in human Pfeiffer cells assessed as early apoptotic cells at 10 uM incubated for 48 hrs by annexin V-FITC staining based flow cytometry (reference value: 4.16 %); type: functional
[19] = molecular target: Phosphatidylinositol 4,5-bisphosphate 3-kinase catalytic subunit alpha isoform (Mus musculus, UniProt P42337); experiment: Inhibition of PI3Kalpha in IGF-1 stimulated mouse C2C12 cells incubated for 10 mins by AlphaLISA assay; type: cell-based
[20] = molecular target: Phosphatidylinositol 4,5-bisphosphate 3-kinase catalytic subunit gamma isoform (Mus musculus, UniProt Q9JHG7); experiment: Inhibition of PI3Kgamma in C5a stimulated mouse RAW264.7 cells incubated for 10 mins by AlphaLisa assay; type: cell-based
[21] = Toxicity in nude mouse xenografted with human Pfeiffer cells assessed as effect on body weight at 30 mg/kg, po BID for 21 days and measured twice weekly; type: organism-based; details: in vivo, 504 h, time 21 day
Rec1 = experiment: Antiproliferative activity against human REC1 cells assessed as cell growth inhibition incubated for 96 hrs by cell titer glo assay; type: functional, cell-based; details: Rec1, 96 h
[22] = molecular target: Phosphatidylinositol 4,5-bisphosphate 3-kinase catalytic subunit gamma isoform (Homo sapiens, UniProt P48736); experiment: Inhibition of PI3Kgamma (unknown origin) using PIP2 as substrate measured after 1 hr in presence of ATP by ADP-glo luminescence assay
Pfeiffer [23] = experiment: Induction of apoptosis in human Pfeiffer cells assessed as viable […] cells at 10 uM incubated for 48 hrs by annexin V-FITC staining based flow cytometry (reference value: 81.14 %); type: functional

T1 sequence (P42338 whole entry, canonical isoform): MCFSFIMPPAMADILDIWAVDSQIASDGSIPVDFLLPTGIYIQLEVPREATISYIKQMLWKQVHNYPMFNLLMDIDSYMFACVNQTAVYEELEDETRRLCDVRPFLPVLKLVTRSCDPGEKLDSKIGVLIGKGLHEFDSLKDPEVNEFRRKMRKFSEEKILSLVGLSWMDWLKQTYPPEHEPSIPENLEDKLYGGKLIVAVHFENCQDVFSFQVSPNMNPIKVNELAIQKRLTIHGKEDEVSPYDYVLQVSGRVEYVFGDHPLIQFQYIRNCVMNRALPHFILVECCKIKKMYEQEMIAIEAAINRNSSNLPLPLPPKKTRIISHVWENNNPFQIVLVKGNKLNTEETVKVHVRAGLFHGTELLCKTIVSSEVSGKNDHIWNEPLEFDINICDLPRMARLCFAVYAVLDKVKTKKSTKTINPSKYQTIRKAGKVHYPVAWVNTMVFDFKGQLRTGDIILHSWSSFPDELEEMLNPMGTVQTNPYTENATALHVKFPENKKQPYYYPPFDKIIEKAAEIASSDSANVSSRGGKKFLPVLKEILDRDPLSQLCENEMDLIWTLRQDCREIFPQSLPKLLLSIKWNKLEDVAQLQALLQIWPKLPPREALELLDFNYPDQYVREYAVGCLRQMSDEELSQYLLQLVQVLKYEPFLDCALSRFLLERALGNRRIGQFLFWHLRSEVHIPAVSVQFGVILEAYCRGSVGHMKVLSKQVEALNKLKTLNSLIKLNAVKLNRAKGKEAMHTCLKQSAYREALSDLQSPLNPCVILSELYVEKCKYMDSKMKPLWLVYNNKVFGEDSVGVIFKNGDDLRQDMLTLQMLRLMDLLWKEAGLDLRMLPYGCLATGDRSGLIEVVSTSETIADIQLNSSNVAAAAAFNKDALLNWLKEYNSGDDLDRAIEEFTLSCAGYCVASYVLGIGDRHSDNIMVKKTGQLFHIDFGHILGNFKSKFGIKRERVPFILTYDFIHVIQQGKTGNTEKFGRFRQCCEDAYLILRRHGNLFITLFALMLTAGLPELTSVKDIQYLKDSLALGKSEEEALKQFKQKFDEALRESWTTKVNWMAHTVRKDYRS
Phosphatidylinositol 4,5-bisphosphate 3-kinase catalytic subunit alpha isoform (Homo sapiens, UniProt P42336), sequence (P42336 whole entry, canonical isoform): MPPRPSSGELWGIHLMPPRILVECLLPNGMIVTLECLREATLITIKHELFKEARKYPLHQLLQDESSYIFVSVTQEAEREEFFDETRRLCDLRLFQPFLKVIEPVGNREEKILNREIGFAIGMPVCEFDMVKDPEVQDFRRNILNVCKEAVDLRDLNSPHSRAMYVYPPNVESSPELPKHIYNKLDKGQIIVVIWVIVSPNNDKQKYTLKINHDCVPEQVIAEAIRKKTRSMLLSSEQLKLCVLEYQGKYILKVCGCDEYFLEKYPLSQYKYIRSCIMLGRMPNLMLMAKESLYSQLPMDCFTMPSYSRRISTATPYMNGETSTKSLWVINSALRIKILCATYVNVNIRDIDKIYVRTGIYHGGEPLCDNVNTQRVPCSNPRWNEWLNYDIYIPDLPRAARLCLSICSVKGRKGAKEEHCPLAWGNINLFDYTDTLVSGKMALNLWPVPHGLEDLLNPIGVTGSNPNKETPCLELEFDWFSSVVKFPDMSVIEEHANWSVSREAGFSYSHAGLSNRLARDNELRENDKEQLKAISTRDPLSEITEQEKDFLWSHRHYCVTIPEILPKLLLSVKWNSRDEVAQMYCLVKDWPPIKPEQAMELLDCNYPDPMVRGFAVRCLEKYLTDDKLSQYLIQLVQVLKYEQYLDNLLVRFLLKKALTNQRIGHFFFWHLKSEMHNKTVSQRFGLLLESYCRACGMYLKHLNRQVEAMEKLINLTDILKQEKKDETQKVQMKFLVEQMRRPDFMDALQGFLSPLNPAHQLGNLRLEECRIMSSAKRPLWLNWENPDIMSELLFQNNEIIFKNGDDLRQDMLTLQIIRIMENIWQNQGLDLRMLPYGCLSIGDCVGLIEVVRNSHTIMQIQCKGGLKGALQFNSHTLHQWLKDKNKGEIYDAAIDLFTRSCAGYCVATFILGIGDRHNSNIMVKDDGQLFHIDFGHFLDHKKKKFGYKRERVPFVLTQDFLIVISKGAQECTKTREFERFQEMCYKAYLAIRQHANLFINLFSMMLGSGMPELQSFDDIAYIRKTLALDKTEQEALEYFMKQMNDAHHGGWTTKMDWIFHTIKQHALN
Phosphatidylinositol 4,5-bisphosphate 3-kinase catalytic subunit alpha isoform (Mus musculus, UniProt P42337), sequence (P42337 whole entry, canonical isoform): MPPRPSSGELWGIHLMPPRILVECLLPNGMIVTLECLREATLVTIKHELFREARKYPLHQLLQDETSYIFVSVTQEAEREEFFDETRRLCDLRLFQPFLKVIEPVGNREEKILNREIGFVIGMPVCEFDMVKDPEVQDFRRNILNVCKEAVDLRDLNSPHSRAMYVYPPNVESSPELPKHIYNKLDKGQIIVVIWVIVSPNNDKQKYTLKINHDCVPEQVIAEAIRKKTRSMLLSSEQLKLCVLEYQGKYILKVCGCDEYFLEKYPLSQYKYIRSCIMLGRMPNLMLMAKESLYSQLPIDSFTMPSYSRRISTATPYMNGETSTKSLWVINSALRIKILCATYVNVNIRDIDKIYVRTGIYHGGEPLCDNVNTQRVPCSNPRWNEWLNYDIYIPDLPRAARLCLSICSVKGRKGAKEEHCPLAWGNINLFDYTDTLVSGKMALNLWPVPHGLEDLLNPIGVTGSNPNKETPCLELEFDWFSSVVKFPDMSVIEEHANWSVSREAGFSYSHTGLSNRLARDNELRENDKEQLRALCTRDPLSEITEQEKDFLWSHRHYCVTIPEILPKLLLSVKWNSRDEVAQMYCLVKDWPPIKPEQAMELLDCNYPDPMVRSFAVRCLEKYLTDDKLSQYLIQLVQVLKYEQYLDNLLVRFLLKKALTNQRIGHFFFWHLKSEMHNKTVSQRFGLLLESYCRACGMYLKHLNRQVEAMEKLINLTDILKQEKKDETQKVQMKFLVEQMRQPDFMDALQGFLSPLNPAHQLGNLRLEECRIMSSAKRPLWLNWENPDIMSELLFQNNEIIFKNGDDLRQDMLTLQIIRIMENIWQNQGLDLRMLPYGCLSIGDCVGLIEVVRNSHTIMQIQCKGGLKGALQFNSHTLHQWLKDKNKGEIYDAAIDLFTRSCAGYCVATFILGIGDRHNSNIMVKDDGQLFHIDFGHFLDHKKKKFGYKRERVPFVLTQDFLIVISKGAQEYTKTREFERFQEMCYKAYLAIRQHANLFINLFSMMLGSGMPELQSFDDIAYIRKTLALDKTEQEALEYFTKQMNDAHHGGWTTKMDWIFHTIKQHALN
Phosphatidylinositol 4,5-bisphosphate 3-kinase catalytic subunit gamma isoform (Homo sapiens, UniProt P48736), sequence (P48736 whole entry, canonical isoform): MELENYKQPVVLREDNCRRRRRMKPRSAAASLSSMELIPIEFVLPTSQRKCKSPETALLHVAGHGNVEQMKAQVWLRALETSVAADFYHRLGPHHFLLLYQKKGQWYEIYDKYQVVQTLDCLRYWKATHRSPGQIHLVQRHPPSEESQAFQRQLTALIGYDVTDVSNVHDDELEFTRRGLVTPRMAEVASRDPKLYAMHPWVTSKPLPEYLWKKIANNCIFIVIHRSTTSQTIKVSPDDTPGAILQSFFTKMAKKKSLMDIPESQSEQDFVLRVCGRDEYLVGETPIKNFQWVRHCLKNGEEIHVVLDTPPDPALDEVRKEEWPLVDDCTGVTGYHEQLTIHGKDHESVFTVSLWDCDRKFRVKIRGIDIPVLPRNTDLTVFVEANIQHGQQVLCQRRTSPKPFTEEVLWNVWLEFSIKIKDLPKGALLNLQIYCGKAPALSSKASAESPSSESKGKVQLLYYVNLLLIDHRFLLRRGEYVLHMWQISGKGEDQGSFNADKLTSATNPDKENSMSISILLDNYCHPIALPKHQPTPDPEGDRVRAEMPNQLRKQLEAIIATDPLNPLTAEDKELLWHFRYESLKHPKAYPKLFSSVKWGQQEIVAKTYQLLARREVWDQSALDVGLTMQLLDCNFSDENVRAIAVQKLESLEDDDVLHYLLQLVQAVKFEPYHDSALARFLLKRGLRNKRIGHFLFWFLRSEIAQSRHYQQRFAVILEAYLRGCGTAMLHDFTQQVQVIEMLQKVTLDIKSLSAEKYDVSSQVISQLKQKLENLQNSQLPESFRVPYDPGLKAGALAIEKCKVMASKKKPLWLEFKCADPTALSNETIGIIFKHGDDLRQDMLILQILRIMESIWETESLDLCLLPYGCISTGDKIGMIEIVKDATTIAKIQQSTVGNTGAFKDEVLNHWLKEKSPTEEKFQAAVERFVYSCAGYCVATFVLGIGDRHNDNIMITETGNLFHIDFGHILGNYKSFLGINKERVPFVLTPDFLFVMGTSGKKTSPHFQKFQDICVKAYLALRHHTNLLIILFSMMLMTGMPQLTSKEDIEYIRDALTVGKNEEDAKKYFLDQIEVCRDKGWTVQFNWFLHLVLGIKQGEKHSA

## CCC(=O)N1CC[C@H](Nc2ncnc3c2CN(c2cnc(OC)c(C(F)(F)F)c2)CC3)C1 [LENIOLISIB]
[1]
  IC50: 0.363 µM
Pfeiffer [2]
  Activity: 12.88%
Z-138
  IC50: 31.2 µM
[3]
  CLint scaled: 355 mL/min/kg
Pfeiffer [4]
  Activity: 4.76%
SUD4
  IC50: 8.25 µM
Pfeiffer [5]
  Activity: 5.69%
[6]
  IC50: 0.0755 µM
JeKo-1
  IC50: 31.7 µM
Pfeiffer [7]
  Activity: 11.23%
Pfeiffer [8]
  inhibition in vivo at 30 mg/kg: 53.8%
DOHH-2
  IC50: 29.2 µM
Pfeiffer [9]
  IC50: 3.75 µM
[10]
  IC50: 2.68 µM
[11]
  half-life: 15.4 min
[12]
  IC50: > 10 µM
SU-DHL-6
  IC50: 0.77 µM
Pfeiffer [13]
  Activity: 5.7%
[14]
  solubility: 57.9 µM (≈ 26.1 µg/mL)
[15]
  solubility: 77.6 µM (≈ 35 µg/mL)
[16]
  fraction unbound: 0.066
Pfeiffer [17]
  Activity: 78.31%
Pfeiffer [18]
  Activity: 5.53%
[19]
  IC50: 19.6 µM
[20]
  IC50: 4.04 µM
[21]
  Activity: 10%
Rec1
  IC50: 1.28 µM
[22]
  IC50: 0.902 µM
Pfeiffer [23]
  Activity: 75.9%
